Laboratory results taken from US12338256B2, “Aza-tetracyclic oxazepine compounds and uses thereof” (Genentech, Inc., priority 2022, dated 2025).

Key:
Assay type in all cases: cell-based
[1] = system: H1975 (KRAS wild type human lung adenocarcinoma cell line); assay: KRAS 3D-Cell Proliferation Assay, H1975 (Example 503); conditions: Homo sapiens, NCI-H1975, 168 h, H1975 3D culture, 7 days, CellTiter-Glo 3D; read-out: Prolif H1975 3D ATP IC50
Method in brief: (§1)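 IC50s come from a 4-parameter Hill fit of luminescence (CellTiter-Glo 3D) normalized between DMSO (0%) and 1 μM staurosporine (100%). Cells in low-attachment 3D culture, RPMI-1640 with 10% FBS, received serial compound dilutions (0.3% DMSO) after overnight and were incubated 7 days at 37 °C.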

[2] = system: PC-9 (KRAS wild type human lung adenocarcinoma cell line); assay: KRAS 3D-Cell Proliferation Assay, PC-9 (Example 503); conditions: 168 h, PC-9 3D culture, 7 days, CellTiter-Glo 3D, read-out: Prolif PC9 3D ATP IC50
Method in brief: as §1

[3] = system: HPAC (homozygous mutant KRAS G12D human pancreatic cell line); assay: KRAS 3D-Cell Proliferation Assay, HPAC (Example 503); conditions: Homo sapiens, HPAC, 168 h, HPAC 3D culture, 7 days, CellTiter-Glo 3D; read-out: Prolif HPAC 3D ATP IC50
Method in brief: as §1

[4] = system: AsPC-1 (homozygous mutant KRAS G12D human pancreatic cell line); assay: KRAS 3D-Cell Proliferation Assay, AsPC-1 (Example 503); conditions: Homo sapiens, ASPC1, 168 h, AsPC-1 3D culture, 7 days, CellTiter-Glo 3D; read-out: Prolif AsPC-1 3D ATP IC50
Method in brief: as §1

SMILES | IC50 [1] [nM] | IC50 [2] [nM] | IC50 [3] [nM] | IC50 [4] [nM]
Cc1cc(N)c(F)c(-c2nc3c4c(nc(OC[C@@]56CCCN5C[C@H](F)C6)nc4c2F)N2C[C@H]4CC[C@H](N4)[C@H]2CO3)c1C(F)(F)F [Compound 36, 2-fluoro-3-((5aS,6S,9R)-1-fluoro-12-(((2R,7aS)-2-fluorotetrahydro-1H-pyrrolizin-7a(5H)-yl)methoxy)-5a,6,7,8,9,10-hexahydro-5H-4-oxa-3,10a,11,13,14-pentaaza-6,9-methanonaphtho[1,8-ab]heptalen-2-yl)-5-methyl-4-(trifluoromethyl)aniline] | 1130 | 6110 | 31.4 | 52.4
Cc1c(F)c(N)cc(-c2nc3c4c(nc(OC[C@@H]5CC(F)(F)CN5C)nc4c2F)N2C[C@H]4CC[C@H](N4)[C@H]2[C@H](C)O3)c1C(F)(F)F [Compound 65, 5-((5S,5aS,6S,9R)-12-(((S)-4,4-Difluoro-1-methylpyrrolidin-2-yl)methoxy)-1-fluoro-5-methyl-5a,6,7,8,9,10-hexahydro-5H-4-oxa-3,10a,11,13,14-pentaaza-6,9-methanonaphtho[1,8-ab]heptalen-2-yl)-2-fluoro-3-methyl-4-(trifluoromethyl)aniline] | 7960 | 7530 | 19.6 | 64.3
Cc1c(F)c(N)cc(-c2nc3c4c(nc(OC[C@@]56CCCN5C[C@H](F)C6)nc4c2F)N2C[C@H]4CC[C@H](N4)[C@H]2[C@H](C)O3)c1C(F)(F)F [Compound 6, 2-Fluoro-5-((5S,5aS,6S,9R)-1-fluoro-12-(((2R,7aS)-2-fluorotetrahydro-1H-pyrrolizin-7a(5H)-yl)methoxy)-5-methyl-5a,6,7,8,9,10-hexahydro-5H-4-oxa-3,10a,11,13,14-pentaaza-6,9-methanonaphtho[1,8-ab]heptalen-2-yl)-3-methyl-4-(trifluoromethyl)aniline] | 692 | 4210 | 0.247 | 0.561
C[C@@H]1Oc2nc(-c3cccc4cccc(Cl)c34)c(F)c3nc(OC[C@@]45CCCN4C[C@H](F)C5)nc(c23)N2C[C@H]3CC[C@H](N3)[C@@H]12 [Compound 8, (5S,5aS,6S,9R)-2-(8-chloronaphthalen-1-yl)-1-fluoro-12-(((2R,7aS)-2-fluorotetrahydro-1H-pyrrolizin-7a(5H)-yl)methoxy)-5-methyl-5a,6,7,8,9,10-hexahydro-5H-4-oxa-3,10a,11,13,14-pentaaza-6,9-methanonaphtho[1,8-ab]heptalene] | 4310 | 3920 | 87.3 | 72
Cc1c(F)c(N)cc(-c2nc3c4c(nc(OC[C@]56CCN5CC(F)(F)C6)nc4c2F)N2C[C@H]4CC[C@H](N4)[C@H]2[C@H](C)O3)c1C(F)(F)F [Compound 24, 5-((5S,5aS,6S,9R)-12-(((R)-3,3-difluoro-1-azabicyclo[3.2.0]heptan-5-yl)methoxy)-1-fluoro-5-methyl-5a,6,7,8,9,10-hexahydro-5H-4-oxa-3,10a,11,13,14-pentaaza-6,9-methanonaphtho[1,8-ab]heptalen-2-yl)-2-fluoro-3-methyl-4-(trifluoromethyl)aniline] | 6710 | 7870 | 1.89 | 4.29
C=C1CN2CCC[C@@]2(COc2nc3c4c(nc(-c5cc(O)cc6cccc(CC)c56)c(F)c4n2)O[C@@H](C)[C@@H]2[C@@H]4CC[C@H](CN32)N4)C1 [Compound 80, 5-Ethyl-4-((5S,5aS,6S,9R)-1-fluoro-5-methyl-12-(((S)-2-methylenetetrahydro-1H-pyrrolizin-7a(5H)-yl)methoxy)-5a,6,7,8,9,10-hexahydro-5H-4-oxa-3,10a,11,13,14-pentaaza-6,9-methanonaphtho[1,8-ab]heptalen-2-yl)naphthalen-2-ol] | 924 | 4050 | 2.76 | 5.08
Cc1cc(N)cc(-c2nc3c4c(nc(OC[C@]56CCN5CC(F)(F)C6)nc4c2F)N2C[C@H]4CC[C@H](N4)[C@H]2[C@H](C)O3)c1C(F)(F)F [Compound 60, 3-((5S,5aS,6S,9R)-12-(((R)-3,3-Difluoro-1-azabicyclo[3.2.0]heptan-5-yl)methoxy)-1-fluoro-5-methyl-5a,6,7,8,9,10-hexahydro-5H-4-oxa-3,10a,11,13,14-pentaaza-6,9-methanonaphtho[1,8-ab]heptalen-2-yl)-5-methyl-4-(trifluoromethyl)aniline] | 720 | 16500 | 2.59 | 3.48
C#Cc1cccc2cncc(-c3nc4c5c(nc(OC[C@@]67CCCN6CC6(CC6(F)F)C7)nc5c3F)N3C[C@H]5CC[C@H](N5)[C@H]3[C@H](C)O4)c12 (stereo partly drawn) [Compound 40, (5S,5aS,6S,9R)-12-(((7a′S)-2,2-difluorodihydro-1′H,3′H-spiro[cyclopropane-1,2′-pyrrolizin]-7a′(5′H)-yl)methoxy)-2-(5-ethynylisoquinolin-4-yl)-1-fluoro-5-methyl-5a,6,7,8,9,10-hexahydro-5H-4-oxa-3,10a,11,13,14-pentaaza-6,9-methanonaphtho[1,8-ab]heptalene] | 20000 | 15700 | 36 | 27.7
C#Cc1c(F)ccc2cc(O)cc(-c3nc4c5c(nc(OC[C@@]67CCCN6C[C@H](F)C7)nc5c3F)N3C[C@H]5CC[C@H](N5)[C@H]3[C@H](C)O4)c12 [Compound 7, 5-Ethynyl-6-fluoro-4-((5S,5aS,6S,9R)-1-fluoro-12-(((2R,7aS)-2-fluorotetrahydro-1H-pyrrolizin-7a(5H)-yl)methoxy)-5-methyl-5a,6,7,8,9,10-hexahydro-5H-4-oxa-3,10a,11,13,14-pentaaza-6,9-methanonaphtho[1,8-ab]heptalen-2-yl)naphthalen-2-ol] | 130 | 10200 | 1.36 | 1.92
C#Cc1cccc2cc(O)cc(-c3nc4c5c(nc(OCC67CCN6CC(F)(F)C7)nc5c3F)N3C[C@H]5CC[C@H](N5)[C@H]3[C@H](C)O4)c12 (single isomer, unassigned) [Compound 20] | 2220 | 8680 | 7.78 | 28.7
C#Cc1cccc2cc(O)cc(-c3nc4c5c(nc(OC[C@@]67CCCN6C[C@H](F)C7)nc5c3F)N3C[C@H]5CC[C@H](CN5CCCF)[C@H]3CO4)c12 [Compound 50, 5-Ethynyl-4-((5aS,6R,9R)-1-fluoro-14-(3-fluoropropyl)-12-(((2R,7aS)-2-fluorotetrahydro-1H-pyrrolizin-7a(5H)-yl)methoxy)-5a,6,7,8,9,10-hexahydro-5H-4-oxa-3,10a,11,13,14-pentaaza-6,9-ethanonaphtho[1,8-ab]heptalen-2-yl)naphthalen-2-ol] | 455 | 4910 | 25.8 | 13
C#Cc1cccc2cc(O)cc(-c3nc4c5c(nc(OC[C@@]67CCCN6C[C@H](F)C7)nc5c3F)N3C[C@H]5CC[C@H](CN5CC5COC5)[C@H]3CO4)c12 [Compound 51, 5-ethynyl-4-((5aS,6R,9R)-1-fluoro-12-(((2R,7aS)-2-fluorotetrahydro-1H-pyrrolizin-7a(5H)-yl)methoxy)-14-(oxetan-3-ylmethyl)-5a,6,7,8,9,10-hexahydro-5H-4-oxa-3,10a,11,13,14-pentaaza-6,9-ethanonaphtho[1,8-ab]heptalen-2-yl)naphthalen-2-ol] | 1820 | 19500 | 73 | 51.2
C[C@@H]1Oc2nc(-c3cccc4cccc(Cl)c34)c(F)c3nc(OC[C@@]45CCCN4CC4(CC4(F)F)C5)nc(c23)N2C[C@H]3CC[C@H](N3)[C@@H]12 (stereo partly drawn) [Compound 27, (5S,5aS,6S,9R)-2-(8-chloronaphthalen-1-yl)-12-(((7a′S)-2,2-difluorodihydro-1′H,3′H-spiro[cyclopropane-1,2′-pyrrolizin]-7a′(5′H)-yl)methoxy)-1-fluoro-5-methyl-5a,6,7,8,9,10-hexahydro-5H-4-oxa-3,10a,11,13,14-pentaaza-6,9-methanonaphtho[1,8-ab]heptalene] | 2390 | 2780 | 68.1 | 32.1
C[C@@H]1Oc2nc(-c3c(C(F)(F)F)ccc(N)c3F)c(F)c3nc(OC[C@@]45CCCN4C[C@H](F)C5)nc(c23)N2C[C@H]3CC[C@H](N3)[C@@H]12 [Compound 35, 2-fluoro-3-((5S,5aS,6S,9R)-1-fluoro-12-(((2R,7aS)-2-fluorotetrahydro-1H-pyrrolizin-7a(5H)-yl)methoxy)-5-methyl-5a,6,7,8,9,10-hexahydro-5H-4-oxa-3,10a,11,13,14-pentaaza-6,9-methanonaphtho[1,8-ab]heptalen-2-yl)-4-(trifluoromethyl)aniline] | 5870 | 9170 | 7.4 | 10.6
C[C@@H]1Oc2nc(-c3cc(N)cc(F)c3C(F)(F)F)c(F)c3nc(OC[C@@]45CCCN4C[C@H](F)C5)nc(c23)N2C[C@H]3CC[C@H](N3)[C@@H]12 [Compound 17, 3-fluoro-5-((5S,5aS,6S,9R)-1-fluoro-12-(((2R,7aS)-2-fluorotetrahydro-1H-pyrrolizin-7a(5H)-yl)methoxy)-5-methyl-5a,6,7,8,9,10-hexahydro-5H-4-oxa-3,10a,11,13,14-pentaaza-6,9-methanonaphtho[1,8-ab]heptalen-2-yl)-4-(trifluoromethyl)aniline] | 1340 | 7910 | 0.62 | 1.71
